Earlier results, collected in patent publication US7374920B2, “Ginkgo biloba levopimaradiene synthase” (priority 2001, dated 2008).

Tests used:
insect larvae = details: Schwarz, M., 1994; Matsumoto, et al., 1987; cited from earlier work
[1] = target: platelet-activating factor (PAF) receptor (Homo sapiens, UniProt P25105); details: compared with the other ginkgolide diterpenes; cited from earlier work
Chain of platelet-activating factor (PAF) receptor (P25105 whole entry): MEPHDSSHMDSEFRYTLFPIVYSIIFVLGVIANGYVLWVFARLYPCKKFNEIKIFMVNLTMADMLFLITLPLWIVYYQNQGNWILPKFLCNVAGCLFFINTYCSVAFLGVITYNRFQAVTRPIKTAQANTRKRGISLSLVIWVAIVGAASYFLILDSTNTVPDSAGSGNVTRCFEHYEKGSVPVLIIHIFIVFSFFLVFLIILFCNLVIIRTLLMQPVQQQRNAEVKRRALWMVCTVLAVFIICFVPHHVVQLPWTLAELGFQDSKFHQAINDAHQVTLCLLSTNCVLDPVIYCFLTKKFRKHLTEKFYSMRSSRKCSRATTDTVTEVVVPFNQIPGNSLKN

| Compound | antifeedant activity (insect larvae) | PAF antagonist activity [1] |
| --- | --- | --- |
| CC(C)(C)[C@]1(O)CC2OC(=O)CC23C(=O)OC2OC(=O)[C@H](O)C231 (some centres unmarked) [bilobalide] | significant antifeedant activities toward insect larvae | – |
| CC1C(=O)OC2C(O)C34C5CC(C(C)(C)C)C36C(OC(=O)C6O)OC4(C(=O)O5)C12O (centres unmarked) [ginkgolide B] | – | highest activity of the diterpenes |
